For orientation: IC50 means the concentration at which inhibition is half-maximal.

Structures can show the parent of a compound that is named as a salt. Where two headings read alike, the source gives them in different places.

One assay concerns the target SHP2 (Homo sapiens (Human), UniProt Q06124). Kind of assay: SHP2 Biochemical Assay (DiFMUP conversion, pIRS1-activated). In a few lines:
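Rates of DiFMU formation were followed 30 min at ex 360/em 450 nm, with 50 μM DiFMUP, 10 pM SHP2 and pIRS1 peptide ([…]) after 30 min compound pre-incubation at pH 7.0 Bis-Tris propane. Four-parameter logistic IC50s in singlicate; repeat runs averaged.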

The test system of assay [1] is pERK (phospho-p44/42 MAPK Thr202/Tyr204) in HCC827 cells. Description: Cellular pERK Inhibition Assay, Method B (PathScan phospho-p44/42 MAPK sandwich ELISA). In kind it is cell-based. The conditions noted are these: for IC50: Homo sapiens. As for the experimental part: Cellular pERK Inhibition Assay
HCC827 cells (ATCC, Manassas, USA) were seeded into 96-well plates at a density of 1×10^5 cells/well in RPMI medium supplemented with 10% FBS and incubated 24h. Compounds were diluted first in DMSO and then into serum-free medium, before being added to cells in triplicate to give a final concentration of 0.1% DMSO. Plates were incubated at 37° C. for the indicated time in a humidified atmosphere of 5% CO2 in air.
Following compound treatment, medium was removed and cells were lysed by adding 50 μL of lysis buffer (Cell Signalling Technology, Beverly, USA) to each well. Plates were then incubated at room temperature for 25 minutes with shaking. pERK levels were measured in lysates using the PathScan(Registered Trademark) phospho-p44/42 MAPK (Thr202/Tyr204) sandwich ELISA (Cell Signalling Technology, Beverly, USA) as per kit instructions. Briefly, 50 μL of cell lysate was added to 50 μL of ELISA sample diluent in a 96-well ELISA plate and incubated overnight at 4° C. Following washing, 100 μL of detection antibody was added per well and the plates incubated for 1 hour at 37° C. Plates were washed again and incubated at 37° C. for 30 minutes with 100 μl of HRP-linked secondary antibody per well. After final washing, 100 μL per well of TMB substrate was added and plates incubated at 37° C. to develop colour. Colour development was stopped by the addition of 100 μL per well of stop solution. Plates were read at 450 nm on a SpectraMax Gemini reader (Molecular Devices, Uckfield, UK).
The average signal from blank wells (no cells added) was subtracted from the signals from each sample well. Levels of pERK were then expressed as “percent of control”, using DMSO treated samples as control. Dose response curves were generated using GraphPad Prism Version 6 (GraphPad Software, La Jolla, USA) and fitted using the four parameter logistic curve fit.

Where [2] appears, read: Table 19, head prints unit as "-M".
Where [3] appears, read: Table 19, head prints unit as "-M", read-out: pERK (IC50) Method B.
Where [4] appears, read: Table 20, read-out: pERK (IC50, μM) Method B.

Sequence of SHP2 (Q06124 whole entry): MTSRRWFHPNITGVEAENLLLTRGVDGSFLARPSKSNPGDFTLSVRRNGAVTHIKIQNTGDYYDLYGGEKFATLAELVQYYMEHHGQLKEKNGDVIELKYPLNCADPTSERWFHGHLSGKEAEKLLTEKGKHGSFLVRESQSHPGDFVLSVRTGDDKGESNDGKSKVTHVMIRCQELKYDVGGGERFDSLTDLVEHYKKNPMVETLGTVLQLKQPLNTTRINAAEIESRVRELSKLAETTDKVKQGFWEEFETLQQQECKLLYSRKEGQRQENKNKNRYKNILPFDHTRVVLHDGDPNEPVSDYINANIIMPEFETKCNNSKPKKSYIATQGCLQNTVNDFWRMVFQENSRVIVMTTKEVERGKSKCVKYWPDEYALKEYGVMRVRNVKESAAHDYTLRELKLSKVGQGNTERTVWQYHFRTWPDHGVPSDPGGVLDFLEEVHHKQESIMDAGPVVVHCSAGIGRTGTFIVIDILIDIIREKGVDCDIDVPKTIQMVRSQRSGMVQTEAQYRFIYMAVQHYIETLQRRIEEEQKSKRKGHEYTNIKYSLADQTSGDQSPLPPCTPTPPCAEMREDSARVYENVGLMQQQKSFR

`Cn1cc2c(Cl)c(-c3c[nH]c4nc(N5[C@@H]6CC[C@@H](N)[C@H]5CC6)n(C)c(=O)c34)ccc2n1` (racemic) [Example 152, rac-2-[(1R,2R,5R)-2-amino-8-azabicyclo[3.2.1]octan-8-yl]-5-(4-chloro-2-methyl-2H-indazol-5-yl)-3-methyl-3H,4H,7H-pyrrolo[2,3-d]pyrimidin-4-one]: the values for the half-maximal inhibitory concentration (IC50) (against SHP2 (setting [2]); in assay [1] (setting [3])) were 29 nM and 0.66 µM, respectively.
On to `Cn1cc2c(Cl)c(-c3c[nH]c4nc(N5[C@@H]6CCNC[C@H]5CC6)n(C)c(=O)c34)ccc2n1` (racemic) [Example 153, rac-5-(4-chloro-2-methyl-2H-indazol-5-yl)-2-[(1R,6S)-3,9-diazabicyclo[4.2.1]nonan-9-yl]-3-methyl-3H,4H,7H-pyrrolo[2,3-d]pyrimidin-4-one], for which the results for the IC50 (at SHP2 (setting [2]); in assay [1] (setting [3])) were 26 nM and 0.52 µM, respectively.
For `CCn1cc2c(Cl)c(-c3c[nH]c4nc(N5CCCC(N)CC5)n(C)c(=O)c34)ccc2n1` (racemic) [Example 154, rac-2-(4-aminoazepan-1-yl)-5-(4-chloro-2-ethyl-2H-indazol-5-yl)-3-methyl-3H,4H,7H-pyrrolo[2,3-d]pyrimidin-4-one hydrochloride], the IC50 at SHP2 (setting [2]) worked out at 21 nM; in assay [1] (setting [3]) it was 0.92 µM.
With `CCn1cc2c(Cl)c(-c3c[nH]c4nc(N5CC6CNC(C6)C5)n(C)c(=O)c34)ccc2n1` (single isomer, unassigned) [Example 190, 5-(4-chloro-2-ethyl-2H-indazol-5-yl)-2-{3,6-diazabicyclo[3.2.1]octan-3-yl}-3-methyl-3H,4H,7H-pyrrolo[2,3-d]pyrimidin-4-one hydrochloride], the IC50 at SHP2 (Table 20) amounted to 45 nM; in assay [1] (setting [4]), 3.3 µM.
`CCn1cc2c(Cl)c(-c3c[nH]c4nc(N5CC6CNC(C6)C5)n(C)c(=O)c34)ccc2n1` (single isomer, unassigned) [Example 191, 5-(4-chloro-2-ethyl-2H-indazol-5-yl)-2-{3,6-diazabicyclo[3.2.1]octan-3-yl}-3-methyl-3H,4H,7H-pyrrolo[2,3-d]pyrimidin-4-one hydrochloride] registered an IC50 against SHP2 (Table 20) of 92 nM. For the same compound, in assay [1] (Table 20, at 10 uM), the “pERK Method B, % at given concentration” value amounted to 60% at 10 uM.
For `CCn1cc2c(Cl)c(-c3c[nH]c4nc(N5CC6CNCC5C6)n(C)c(=O)c34)ccc2n1` (single isomer, unassigned) [Example 192, 5-(4-chloro-2-ethyl-2H-indazol-5-yl)-2-{3,6-diazabicyclo[3.2.1]octan-6-yl}-3-methyl-3H,4H,7H-pyrrolo[2,3-d]pyrimidin-4-one hydrochloride], the results for the IC50 (at SHP2 (Table 20); in assay [1] (setting [4])) were 67 nM and 0.99 µM, respectively.
Turning to `Cn1cc2c(Cl)c(-c3n[nH]c4nc(N5[C@@H]6CC[C@H]5C[C@@H](N)C6)n(C)c(=O)c34)ccc2n1` [Example 136, endo-6-[3-amino-8-azabicyclo[3.2.1]octan-8-yl]-3-(4-chloro-2-methyl-2H-indazol-5-yl)-5-methyl-1H,4H,5H-pyrazolo[3,4-d]pyrimidin-4-one], the IC50 stood at 30 nM against SHP2 (setting [2]) and 2.7 µM in assay [1] (setting [3]).
`Cn1cc2c(Cl)c(-c3n[nH]c4nc(N5C6CCC5CNC6)n(C)c(=O)c34)ccc2n1` [Example 137, 3-(4-chloro-2-methyl-2H-indazol-5-yl)-6-{3,8-diazabicyclo[3.2.1]octan-8-yl}-5-methyl-1H,4H,5H-pyrazolo[3,4-d]pyrimidin-4-one] registered an IC50 against SHP2 (setting [2]) of 59 nM. Further, in assay [1] (Table 19, at 3.0 μM), the “pERK Method B, % at given concentration” value is listed as 45% at 3.0 μM.
On to `Cn1cc2c(Cl)c(-c3n[nH]c4nc(N5CCC6(CC5)C[C@H](O)C[C@H]6N)n(C)c(=O)c34)ccc2n1` [Example 138, 6-[(1R,3S)-1-amino-3-hydroxy-8-azaspiro[4.5]decan-8-yl]-3-(4-chloro-2-methyl-2H-indazol-5-yl)-5-methyl-1H,4H,5H-pyrazolo[3,4-d]pyrimidin-4-one], for which the IC50 on SHP2 (setting [2]) is 19 nM; in assay [1] (setting [3]), 1.6 µM.

For the origin of these results see patent publication US12037345B2, “Heterobicyclic compounds for inhibiting the activity of SHP2” (TAIHO PHARMACEUTICAL CO., LTD., priority 2018, dated 2024).
